Here are results for five compounds from publication PMC10224427, “A Novel Flow Cytometry-Based Assay for the Identification of HCN4 CNBD Ligands” (Pharmaceuticals, 2023).

The target of assay [1] is T1, HCN4 C-Linker-CNBD (Homo sapiens, UniProt Q9Y3Q4).
T1 construct: the passenger domain human HCN4 C-Linker-CNBD; CtxB signal peptide (N, cleaved yes); His-Tag (N); made in house; host or cells: E. coli BL21 (OmpT-deficient)
T1 sequence (Q9Y3Q4 521-723 limits assumed): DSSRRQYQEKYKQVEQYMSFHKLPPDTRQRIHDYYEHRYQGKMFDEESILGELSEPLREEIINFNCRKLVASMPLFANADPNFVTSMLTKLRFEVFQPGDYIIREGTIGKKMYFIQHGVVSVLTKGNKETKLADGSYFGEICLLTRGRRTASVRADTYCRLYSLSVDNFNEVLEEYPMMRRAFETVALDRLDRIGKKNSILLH
Kind of assay: Competitive binding assay, displacement of 8-Fluo-cAMP, flow cytometry. Background: Flow cytometry measures light scatter and fluorescence of single cells or particles in a stream.

For assay [2], the target named is HCN4 MBP-C-Linker-CNBD fusion protein. Details: method as in PMID 24605759. The conditions noted are these: ITC; cited from earlier work. (Isothermal titration calorimetry measures the heat released or taken up as one component is titrated into another.)
In assay [3] the target is T1, HCN4 C-Linker-CNBD. Kind of assay: Flow cytometry-based ligand-binding assay, 8-Fluo-cAMP on E. coli surface-displayed protein.
Assay [4] addresses maltose-binding protein (MBP) (Escherichia coli, UniProt P0AEX9). The conditions noted are these: up to 4 µM 8-Fluo-cAMP.
The target in assay [5] is purified HCN4 MBP-C-Linker-CNBD fusion protein. The note with it: FP, cited from earlier work.
For assay [6], the target named is purified HCN4 C-Linker-CNBD. The conditions noted are these: cited from earlier work.
The target of assay [7] is purified HCN4 C-Linker-CNBD. The note with it: ITC; cited from earlier work.
In assay [8] the target is purified HCN4 C-Linker-CNBD. The conditions noted are these: SPR; cited from earlier work. (In general: In SPR one partner is held on a chip, and binding of the other changes the refractive index at the surface.)
[9] abbreviates: ref 47, read-out: binding affinity (Kd).
The mark [10] stands for this setting: 50 nM 8-Fluo-cAMP, 100 µM competitor.

Molecules are shown by their SMILES. Where “and” joins values, the source holds several entries; their conditions need not be identical. Equal values may be shown once. Entries after “also recorded” stand apart in the source; their conditions may differ. Read-outs that look alike come from different tables or passages of the source.

In general, IC50 refers to the concentration that inhibits the measured activity by half. One may read the Ki as a dissociation constant, usually derived from enzyme kinetics or from competition with a known ligand. The term Kd denotes a measure of binding affinity in units of concentration.

Turning to `Nc1ncnc2c1ccn2[C@@H]1O[C@@H]2COP(=O)(O)O[C@H]2[C@H]1O` [7-CH-cAMP, 7-Deazaadenosine-3,5′-cyclic monophosphate], the concentration for half-maximal inhibition (IC50) in assay [1] (50 nM 8-Fluo-cAMP, read-out: IC50 for 8-Fluo-cAMP binding) amounted to 0.23 ± 0.041 µM. Moreover, in assay [1] (50 nM 8-Fluo-cAMP, read-out: inhibitory constant (Ki), calculated), the Ki was 0.159 ± 0.029 µM. Besides, the Kd in assay [2] is 30 nM.

On to `Nc1ncnc2c1nc(SCCNC(=S)Nc1ccc(-c3c4ccc(=O)cc-4oc4cc(O)ccc34)c(C(=O)O)c1)n2[C@@H]1O[C@@H]2COP(=O)(O)O[C@H]2[C@H]1O` [8-Fluo-cAMP, 8-(2-[Fluoresceinyl]aminoethylthio)adenosine-3′,5′-cyclic monophosphate], for which the “concentration at which saturation of binding is attained” value in assay [3] (mFI of cells displaying HCN4 C-Linker-CNBD) was “around 500 nM”. Moreover, the Kd in assay [3] (surface-displayed HCN4 C-Linker-CNBD on E. coli, 1 nM-4 µM ligand, 30 min, 30 °C, read-out: dissociation constant (Kd)) is 173 ± 46 nM; in assay [5] (ref 35, read-out: binding affinity (Kd)), 189 nM; in assay [5] (setting [9]), 111 nM; in assay [6] (ref 9, read-out: binding affinity (Kd)), 280 nM; in assay [6] (setting [9]), 167 nM. For the same compound, in assay [4], the “unspecific binding to surface-displayed MBP (mFI)” value was “only a marginal increase in mFI; also recorded: no unspecific binding”.

`Nc1ncnc2c1ncn2C1OC2COP(=O)(O)OC2C1O` (stereo not drawn) [cAMP, Adenosine-3′,5′-cyclic monophosphate]: the “effect on 8-Fluo-cAMP binding to the CNBD (mFI)” value (“effect on 8-Fluo-cAMP binding” below) in assay [1] was “decreased mFI”. The concentration for half-maximal inhibition (IC50) in assay [1] (IC50 for 8-Fluo-cAMP binding) is 13 µM and 16 µM and 23 µM and 27 µM. The inhibition constant Ki in assay [1] (Ki determined graphically) was 11.7 µM; in assay [1] (calculated Ki), 8.5 ± 2 µM. In addition, the Kd is 800 nM in assay [7] and 1500 nM in assay [8].

Take `NCC1(CC(=O)O)CCCCC1` [gabapentin, Gabapentin]: the “effect on 8-Fluo-cAMP binding” value in assay [1] (setting [10]) was “no influence; also recorded: no impact”.

For the compound `COc1cc2c(cc1OC)CC(=O)N(CCCN(C)C[C@H]1Cc3cc(OC)c(OC)cc31)CC2` [ivabradine, Ivabradine], in assay [1] (setting [10]), the “effect on 8-Fluo-cAMP binding” value is “no impact on ligand binding; also recorded: no influence”.
